Measured values published in ChEMBL document CHEMBL5608141, “Identification of compartment-specific drug sensitivities in CRC organoid-stroma co-cultures” (2024).

Tests used:
Format in all cases: functional, Homo sapiens
Parameters in all cases: dose or concentration left out as unconfirmed
Colon cancer organoid [1] = assay: Identification of compartment-specific drug sensitivities in O14 CRC organoid-stroma F14 CAF co-cultures. Organoid is transduced with Lucferase2-P2A-EGFP lentivirus, fibroblast with Renilla-dsRed lentivirus. Dual-Glo Luciferase assay is used to report viability data.
Colon cancer organoid [2] = assay: Identification of compartment-specific drug sensitivities in O06 CRC organoid-stroma F06 CAF co-cultures. Organoid is transduced with Lucferase2-P2A-EGFP lentivirus, fibroblast with Renilla-dsRed lentivirus. Dual-Glo Luciferase assay is used to report viability data.
Colon cancer organoid [3] = assay: Identification of compartment-specific drug sensitivities in O20 CRC organoid-stroma F20 CAF co-cultures. Organoid is transduced with Lucferase2-P2A-EGFP lentivirus, fibroblast with Renilla-dsRed lentivirus. Dual-Glo Luciferase assay is used to report viability data.
[4] = Transduced with Lucferase2-P2A-EGFP lentivirus
[5] = Transduced with Renilla-dsRed lentivirus

## C[C@H]1CCCN1Cc1nc2cc(NC(=O)c3ccc4cnccc4c3)ccc2[nH]1
Colon cancer organoid [1]; [4]
  Cell Viability: 76.6817%
Colon cancer organoid [1]; [5]
  Cell Viability: 109.65%
Colon cancer organoid [2]; [4]
  Cell Viability: 122.515%
Colon cancer organoid [2]; [5]
  Cell Viability: 131.721%
Colon cancer organoid [3]; [4]
  Cell Viability: 98.7446%
Colon cancer organoid [3]; [5]
  Cell Viability: 149.477%

## O=C(NC[C@H](O)CN1CCc2ccccc2C1)c1ccnc(NC2CCC2)c1
Colon cancer organoid [1]; [4]
  Cell Viability: 42.6769%
Colon cancer organoid [1]; [5]
  Cell Viability: 91.2933%
Colon cancer organoid [2]; [4]
  Cell Viability: 33.1368%
Colon cancer organoid [2]; [5]
  Cell Viability: 110.399%
Colon cancer organoid [3]; [4]
  Cell Viability: 43.0801%
Colon cancer organoid [3]; [5]
  Cell Viability: 143.569%

## Cc1cc(CN)cc(C)c1-c1ncn(C)c1-c1cncn1C
Colon cancer organoid [1]; [4]
  Cell Viability: 88.8994%
Colon cancer organoid [1]; [5]
  Cell Viability: 94.9152%
Colon cancer organoid [2]; [4]
  Cell Viability: 121.461%
Colon cancer organoid [2]; [5]
  Cell Viability: 141.638%
Colon cancer organoid [3]; [4]
  Cell Viability: 127.793%
Colon cancer organoid [3]; [5]
  Cell Viability: 117.48%

## COc1ccccc1C(=O)Nc1cc2c(cc1N1CCNCC1C)n(C)c(=O)n2C (centres undefined)
Colon cancer organoid [1]; [4]
  Cell Viability: 118.564%
Colon cancer organoid [1]; [5]
  Cell Viability: 101.199%
Colon cancer organoid [2]; [4]
  Cell Viability: 112.155%
Colon cancer organoid [2]; [5]
  Cell Viability: 138.916%
Colon cancer organoid [3]; [4]
  Cell Viability: 131.273%
Colon cancer organoid [3]; [5]
  Cell Viability: 107.173%

## O=C(NNS(=O)(=O)c1ccccc1)c1cc(-c2ccnnc2)ccc1F [WM-2474]
Colon cancer organoid [1]; [4]
  Cell Viability: 98.8891%
Colon cancer organoid [1]; [5]
  Cell Viability: 109.079%
Colon cancer organoid [2]; [4]
  Cell Viability: 92.1572%
Colon cancer organoid [2]; [5]
  Cell Viability: 93.3483%
Colon cancer organoid [3]; [4]
  Cell Viability: 104.944%
Colon cancer organoid [3]; [5]
  Cell Viability: 126.08%

## Cc1ccc(-c2ccc3c(ccc4sc5c(c43)NC[C@@H](C)NC5=O)n2)cn1
Colon cancer organoid [1]; [4]
  Cell Viability: 77.4963%
Colon cancer organoid [1]; [5]
  Cell Viability: 56.184%
Colon cancer organoid [2]; [4]
  Cell Viability: 100.355%
Colon cancer organoid [2]; [5]
  Cell Viability: 85.371%
Colon cancer organoid [3]; [4]
  Cell Viability: 154.003%
Colon cancer organoid [3]; [5]
  Cell Viability: 70.7863%

## COc1ccccc1-c1cc(N2CCN(C(=O)OC(C)(C)C)CC2)c(N)nn1
Colon cancer organoid [1]; [4]
  Cell Viability: 120.209%
Colon cancer organoid [1]; [5]
  Cell Viability: 94.5585%
Colon cancer organoid [2]; [4]
  Cell Viability: 99.4085%
Colon cancer organoid [2]; [5]
  Cell Viability: 102.712%
Colon cancer organoid [3]; [4]
  Cell Viability: 123.55%
Colon cancer organoid [3]; [5]
  Cell Viability: 160.936%

## O=C(NOCC1CC1)c1ccc(F)c(F)c1Nc1ccc(I)cc1Cl [CI-1040]
Colon cancer organoid [1]; [4]
  Cell Viability: 35.7635%
Colon cancer organoid [1]; [5]
  Cell Viability: 62.5859%
Colon cancer organoid [2]; [4]
  Cell Viability: 38.2974%
Colon cancer organoid [2]; [5]
  Cell Viability: 73.8424%
Colon cancer organoid [3]; [4]
  Cell Viability: 44.1491%
Colon cancer organoid [3]; [5]
  Cell Viability: 195.336%

## c1ccc(C2CCN(c3cnc4c(N5CCOCC5)nccn34)CC2)cc1
Colon cancer organoid [1]; [4]
  Cell Viability: 130.379%
Colon cancer organoid [1]; [5]
  Cell Viability: 77.7891%
Colon cancer organoid [2]; [4]
  Cell Viability: 25.484%
Colon cancer organoid [2]; [5]
  Cell Viability: 144.176%
Colon cancer organoid [3]; [4]
  Cell Viability: 90.2822%
Colon cancer organoid [3]; [5]
  Cell Viability: 108.246%

## COc1ccc(Cn2ccc3ccc(C(=O)NO)cc32)cc1
Colon cancer organoid [1]; [4]
  Cell Viability: 104.237%
Colon cancer organoid [1]; [5]
  Cell Viability: 105.297%
Colon cancer organoid [2]; [4]
  Cell Viability: 111.578%
Colon cancer organoid [2]; [5]
  Cell Viability: 129.424%
Colon cancer organoid [3]; [4]
  Cell Viability: 177.336%
Colon cancer organoid [3]; [5]
  Cell Viability: 111.53%

## Cc1nc(C2CCN(C(=O)c3ccc(OC(F)(F)F)cc3N)CC2)c2ncc(N3CCN(C)CC3)cc2n1 [BAY-693]
Colon cancer organoid [1]; [4]
  Cell Viability: 77.0919%
Colon cancer organoid [1]; [5]
  Cell Viability: 74.1942%
Colon cancer organoid [2]; [4]
  Cell Viability: 114.208%
Colon cancer organoid [2]; [5]
  Cell Viability: 166.908%
Colon cancer organoid [3]; [4]
  Cell Viability: 93.6142%
Colon cancer organoid [3]; [5]
  Cell Viability: 129.276%

## COc1cc(Nc2nccc(-c3cnn4nc(OC)ccc34)n2)cc(C(F)(F)F)c1
Colon cancer organoid [1]; [4]
  Cell Viability: 7.4245%
Colon cancer organoid [1]; [5]
  Cell Viability: 53.4313%
Colon cancer organoid [2]; [4]
  Cell Viability: 29.547%
Colon cancer organoid [2]; [5]
  Cell Viability: 143.538%
Colon cancer organoid [3]; [4]
  Cell Viability: 11.0854%
Colon cancer organoid [3]; [5]
  Cell Viability: 189.711%

## Cc1cc(=O)n(C)c2cc(N3C(=O)CC[C@H](NS(=O)(=O)CC(C)C)[C@H]3c3ccc(Cl)cc3)ccc12
Colon cancer organoid [1]; [4]
  Cell Viability: 95.8197%
Colon cancer organoid [1]; [5]
  Cell Viability: 121.413%
Colon cancer organoid [2]; [4]
  Cell Viability: 117.914%
Colon cancer organoid [2]; [5]
  Cell Viability: 167.751%
Colon cancer organoid [3]; [4]
  Cell Viability: 108.181%
Colon cancer organoid [3]; [5]
  Cell Viability: 166.434%

## O=C(NOC[C@H](O)CO)c1ccc(F)c(F)c1Nc1ccc(I)cc1F [MIRDAMETINIB]
Colon cancer organoid [1]; [4]
  Cell Viability: 7.045%
Colon cancer organoid [1]; [5]
  Cell Viability: 23.0385%
Colon cancer organoid [2]; [4]
  Cell Viability: 8.8965%
Colon cancer organoid [2]; [5]
  Cell Viability: 49.9042%
Colon cancer organoid [3]; [4]
  Cell Viability: 3.902%
Colon cancer organoid [3]; [5]
  Cell Viability: 83.5811%

## Cc1c(Oc2ccc(F)cc2)c(OC(C)C)nn1-c1ccc(C2CC2)cn1 [IPP/CNRS-A019]
Colon cancer organoid [1]; [4]
  Cell Viability: 67.4569%
Colon cancer organoid [1]; [5]
  Cell Viability: 79.6967%
Colon cancer organoid [2]; [4]
  Cell Viability: 92.46%
Colon cancer organoid [2]; [5]
  Cell Viability: 90.9232%
Colon cancer organoid [3]; [4]
  Cell Viability: 91.0165%
Colon cancer organoid [3]; [5]
  Cell Viability: 118.396%

## Cc1sc2c(c1C)C(c1ccc(Cl)cc1)=N[C@H](CC(=O)OC(C)(C)C)c1nnc(C)n1-2
Colon cancer organoid [1]; [4]
  Cell Viability: 146.34%
Colon cancer organoid [1]; [5]
  Cell Viability: 95.1093%
Colon cancer organoid [2]; [4]
  Cell Viability: 107.283%
Colon cancer organoid [2]; [5]
  Cell Viability: 109.974%
Colon cancer organoid [3]; [4]
  Cell Viability: 99.6993%
Colon cancer organoid [3]; [5]
  Cell Viability: 113.657%

## CCS(=O)(=O)c1cc2cc(C[C@](O)(CC(C)(C)c3ccc(F)cc3C(N)=O)C(F)(F)F)[nH]c2cn1 [BI 653048]
Colon cancer organoid [1]; [4]
  Cell Viability: 130.109%
Colon cancer organoid [1]; [5]
  Cell Viability: 193.347%
Colon cancer organoid [2]; [4]
  Cell Viability: 70.4743%
Colon cancer organoid [2]; [5]
  Cell Viability: 199.02%
Colon cancer organoid [3]; [4]
  Cell Viability: 85.6205%
Colon cancer organoid [3]; [5]
  Cell Viability: 287.465%

## COc1cccc2c1c(O)c(C(=O)N(C)c1ccc(C(F)(F)F)cc1)c(=O)n2C [TASQUINIMOD]
Colon cancer organoid [1]; [4]
  Cell Viability: 112.754%
Colon cancer organoid [1]; [5]
  Cell Viability: 82.8858%
Colon cancer organoid [2]; [4]
  Cell Viability: 78.5663%
Colon cancer organoid [2]; [5]
  Cell Viability: 130.265%
Colon cancer organoid [3]; [4]
  Cell Viability: 64.5374%
Colon cancer organoid [3]; [5]
  Cell Viability: 99.9703%

## Nc1ccc(C(=O)Nc2cccc(-c3nc(N4CCOCC4)c4oc5ncccc5c4n3)c2)cn1
Colon cancer organoid [1]; [4]
  Cell Viability: 65.9749%
Colon cancer organoid [1]; [5]
  Cell Viability: 77.6378%
Colon cancer organoid [2]; [4]
  Cell Viability: 78.745%
Colon cancer organoid [2]; [5]
  Cell Viability: 81.5262%
Colon cancer organoid [3]; [4]
  Cell Viability: 141.773%
Colon cancer organoid [3]; [5]
  Cell Viability: 75.1771%

## N#Cc1cnc(Nc2cc(NC[C@H]3CNCCO3)c(C(F)(F)F)cn2)cn1 [SRA-737]
Colon cancer organoid [1]; [4]
  Cell Viability: 25.2627%
Colon cancer organoid [1]; [5]
  Cell Viability: 122.808%
Colon cancer organoid [2]; [4]
  Cell Viability: 89.9461%
Colon cancer organoid [2]; [5]
  Cell Viability: 120.027%
Colon cancer organoid [3]; [4]
  Cell Viability: 103.573%
Colon cancer organoid [3]; [5]
  Cell Viability: 133.202%

## O=C(/C=C/N1C[C@H]2C[C@@H]1CN2c1ccccn1)c1ccccc1O
Colon cancer organoid [1]; [4]
  Cell Viability: 104.919%
Colon cancer organoid [1]; [5]
  Cell Viability: 81.7789%
Colon cancer organoid [2]; [4]
  Cell Viability: 122.112%
Colon cancer organoid [2]; [5]
  Cell Viability: 121.159%
Colon cancer organoid [3]; [4]
  Cell Viability: 99.3831%
Colon cancer organoid [3]; [5]
  Cell Viability: 109.392%

## Cc1nc(-c2cn3c(n2)-c2ccc(-c4cnn(C(C)(C)C(N)=O)c4)cc2OCC3)n(C(C)C)n1 [TASELISIB]
Colon cancer organoid [1]; [4]
  Cell Viability: 38.4959%
Colon cancer organoid [1]; [5]
  Cell Viability: 67.2929%
Colon cancer organoid [2]; [4]
  Cell Viability: 42.3556%
Colon cancer organoid [2]; [5]
  Cell Viability: 62.2904%
Colon cancer organoid [3]; [4]
  Cell Viability: 15.8824%
Colon cancer organoid [3]; [5]
  Cell Viability: 146.008%

## CC(C)(O)c1cncc(-c2nc3ccc(F)cc3n2C2CC2)c1 [MSD-CYP11B2]
Colon cancer organoid [1]; [4]
  Cell Viability: 89.9575%
Colon cancer organoid [1]; [5]
  Cell Viability: 101.392%
Colon cancer organoid [2]; [4]
  Cell Viability: 83.611%
Colon cancer organoid [2]; [5]
  Cell Viability: 134.058%
Colon cancer organoid [3]; [4]
  Cell Viability: 80.182%
Colon cancer organoid [3]; [5]
  Cell Viability: 128.543%

## C[C@@H]1CCc2ncc(F)cc2[C@H]2CCCN2c2ccn3ncc(c3n2)C(=O)N1 [SELITRECTINIB]
Colon cancer organoid [1]; [4]
  Cell Viability: 99.8274%
Colon cancer organoid [1]; [5]
  Cell Viability: 100.464%
Colon cancer organoid [2]; [4]
  Cell Viability: 101.733%
Colon cancer organoid [2]; [5]
  Cell Viability: 118.761%
Colon cancer organoid [3]; [4]
  Cell Viability: 168.559%
Colon cancer organoid [3]; [5]
  Cell Viability: 73.3915%
